Assay results as given in PubChem BioAssay AID330 (DTP/NCI, 2004).
Several values for one entry are separate records, joined by “and”; a condition that tells them apart may be missing. Identical values can stand only once. Toxic doses and inconclusive results are not listed. How the source made its calls: active means survival T/C of 150% or more; inactive means T/C below 125% in these data.

Tested on: P388 leukemia ip, CD2F1 mice, survival T/C
Test: NCI In Vivo Anticancer Drug Screen. Data for tumor model P388 Leukemia (intraperitoneal) in CD2F1 (CDF1) mice
Details: endpoint: median survival time, higher = longer survival
In short: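 Mice carrying the transplanted tumor received test compound or vehicle. Survival was recorded in each group, and the value is the treated-group measurement divided by that of the vehicle-treated control group.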

[1] = dose: 50.0 mg/kg/injection, schedule: Q01DX009 (ip), vehicle: saline
[2] = dose: 100.0 mg/kg/injection, schedule: Q01DX009 (ip), vehicle: saline
[3] = dose: 200.0 mg/kg/injection, schedule: Q01DX009 (ip), vehicle: saline
[4] = dose: 25.0 mg/kg/injection, schedule: Q01DX009 (ip), vehicle: saline with Tween-80
[5] = dose: 50.0 mg/kg/injection, schedule: Q01DX009 (ip), vehicle: saline with Tween-80
[6] = dose: 100.0 mg/kg/injection, schedule: Q01DX009 (ip), vehicle: saline with Tween-80
[7] = dose: 200.0 mg/kg/injection, schedule: Q01DX009 (ip), vehicle: saline with Tween-80
[8] = dose: 60.0 mg/kg/injection, schedule: Q01DX005 (ip), vehicle: saline with Tween-80
[9] = dose: 120.0 mg/kg/injection, schedule: Q01DX005 (ip), vehicle: saline with Tween-80
[10] = dose: 240.0 mg/kg/injection, schedule: Q01DX005 (ip), vehicle: saline with Tween-80
[11] = dose: 100.0 mg/kg/injection, schedule: Q04DX003 (ip), vehicle: saline
[12] = dose: 200.0 mg/kg/injection, schedule: Q04DX003 (ip), vehicle: saline
[13] = dose: 50.0 mg/kg/injection, schedule: Q01DX005 (ip), vehicle: saline
[14] = dose: 100.0 mg/kg/injection, schedule: Q01DX005 (ip), vehicle: saline
[15] = dose: 200.0 mg/kg/injection, schedule: Q01DX005 (ip), vehicle: saline
[16] = dose: 50.0 mg/kg/injection, schedule: Q01DX005 (ip), vehicle: Klucel (hydroxypropylcellulose) (HPC)
[17] = dose: 100.0 mg/kg/injection, schedule: Q01DX005 (ip), vehicle: Klucel (hydroxypropylcellulose) (HPC)
[18] = dose: 50.0 mg/kg/injection, schedule: Q01DX009 (ip), vehicle: Klucel (hydroxypropylcellulose) (HPC)
[19] = dose: 100.0 mg/kg/injection, schedule: Q01DX009 (ip), vehicle: Klucel (hydroxypropylcellulose) (HPC)
[20] = dose: 200.0 mg/kg/injection, schedule: Q01DX009 (ip), vehicle: Klucel (hydroxypropylcellulose) (HPC)

Measured: T/C

Cc1cc[n+]([O-])cc1
inactive: [1] 105 % of control | [2] 106 % of control | [3] 97 % of control

Nc1cc(=O)[nH]c(N)n1
inactive: dose: 6.25 mg/kg/injection, schedule: Q01DX009 (ip), vehicle: saline with Tween-80 106 % of control | dose: 12.5 mg/kg/injection, schedule: Q01DX009 (ip), vehicle: saline with Tween-80 106 % of control | [4] 106 % of control | [5] 104 % of control and 108 % of control | [6] 107 % of control | [7] 104 % of control

c1ccc(Nc2nnc3nc(-c4ccccc4)c(-c4ccccc4)nn23)cc1
inactive: dose: 50.0 mg/kg/injection, schedule: Q01DX005 (ip), vehicle: saline with Tween-80 91 % of control | dose: 100.0 mg/kg/injection, schedule: Q01DX005 (ip), vehicle: saline with Tween-80 90 % of control | dose: 200.0 mg/kg/injection, schedule: Q01DX005 (ip), vehicle: saline with Tween-80 102 % of control

COc1ccc(C2COc3cc4c(cc3C2)OCO4)cc1 (stereo not given)
inactive: [8] 98 % of control | [9] 98 % of control | [10] 96 % of control

CS(=O)(=O)/C=C/C([N+](=O)[O-])[N+](=O)[O-]
inactive: [11] 109 % of control | [12] 104 % of control | dose: 400.0 mg/kg/injection, schedule: Q04DX003 (ip), vehicle: saline 92 % of control

O=C1c2ccccc2CCC1Cl (stereo not given)
inactive: dose: 1.56 mg/kg/injection, schedule: Q01DX009 (ip), vehicle: DMSO 100 % of control | dose: 3.12 mg/kg/injection, schedule: Q01DX009 (ip), vehicle: DMSO 103 % of control | dose: 6.25 mg/kg/injection, schedule: Q01DX009 (ip), vehicle: DMSO 94 % of control and 97 % of control | dose: 12.5 mg/kg/injection, schedule: Q01DX009 (ip), vehicle: DMSO 102 % of control | dose: 25.0 mg/kg/injection, schedule: Q01DX009 (ip), vehicle: DMSO 94 % of control

CN=C(C)NO
inactive: [13] 106 % of control | [14] 104 % of control | [15] 99 % of control

O=NC1C(=O)NC(=S)NC1=O
inactive: dose: 12.5 mg/kg/injection, schedule: Q04DX002 (ip), vehicle: saline with Tween-80 100 % of control

CC(O)(CO)C(C)(O)C(C)(O)c1cn(O)c(=N)c(C(=O)OCc2ccccc2)n1 (stereo not given)
inactive: [11] 93 % of control | [12] 102 % of control

CC1(C)CC(=O)C(CC2=C(N)CC(C)(C)CC2=O)=C(N)C1
inactive: dose: 25.0 mg/kg/injection, schedule: Q04DX003 (ip), vehicle: Klucel (hydroxypropylcellulose) (HPC) 95 % of control | dose: 50.0 mg/kg/injection, schedule: Q04DX003 (ip), vehicle: Klucel (hydroxypropylcellulose) (HPC) 101 % of control | dose: 100.0 mg/kg/injection, schedule: Q04DX003 (ip), vehicle: Klucel (hydroxypropylcellulose) (HPC) 94 % of control | dose: 200.0 mg/kg/injection, schedule: Q04DX003 (ip), vehicle: Klucel (hydroxypropylcellulose) (HPC) 95 % of control

Cc1ccc(N)c(O)c1
inactive: [2] 102 % of control and 105 % of control | [3] 100 % of control and 103 % of control | dose: 400.0 mg/kg/injection, schedule: Q01DX009 (ip), vehicle: saline 101 % of control and 113 % of control | dose: 600.0 mg/kg/injection, schedule: Q01DX009 (ip), vehicle: saline 115 % of control

c1ccc2c(c1)[nH]c1c2nc2ccccn21
inactive: dose: 25.0 mg/kg/injection, schedule: Q01DX005 (ip), vehicle: Klucel (hydroxypropylcellulose) (HPC) 105 % of control and 107 % of control | [16] 105 % of control and 108 % of control and 113 % of control | [17] 124 % of control

O=C1Nc2cnc(Cl)nc2Nc2ccc(Cl)cc21
inactive: [16] 92 % of control | [17] 99 % of control | dose: 200.0 mg/kg/injection, schedule: Q01DX005 (ip), vehicle: Klucel (hydroxypropylcellulose) (HPC) 89 % of control

COC(=O)N1C(C)=Cc2ccccc2C1C#N (stereo not given)
inactive: dose: 50.0 mg/kg/injection, schedule: Q01DX009 (ip), vehicle: suspension in saline 100 % of control | dose: 100.0 mg/kg/injection, schedule: Q01DX009 (ip), vehicle: suspension in saline 98 % of control | dose: 200.0 mg/kg/injection, schedule: Q01DX009 (ip), vehicle: suspension in saline 95 % of control

N#CCCSc1nnc(N)s1
inactive: [18] 108 % of control | [19] 103 % of control | [20] 104 % of control | dose: 400.0 mg/kg/injection, schedule: Q01DX009 (ip), vehicle: Klucel (hydroxypropylcellulose) (HPC) 100 % of control

CCOP(=O)(CC1OCC2(CO1)COC(CP(=O)(OCC)OCC)OC2)OCC (stereo not given)
inactive: dose: 12.5 mg/kg/injection, schedule: Q01DX009 (ip), vehicle: saline 87 % of control | dose: 25.0 mg/kg/injection, schedule: Q01DX009 (ip), vehicle: saline 94 % of control | [1] 101 % of control and 92 % of control | [2] 106 % of control | [3] 100 % of control

COc1cc(CC2NCCc3cc(O)c(O)cc32)cc(OC)c1OC (stereo not given)
inactive: dose: 25.0 mg/kg/injection, schedule: Q01DX009 (ip), vehicle: Klucel (hydroxypropylcellulose) (HPC) 103 % of control | [18] 100 % of control and 113 % of control | [19] 106 % of control and 111 % of control | [20] 108 % of control

CCCCCCCCCCCCCCCCCc1cccc(OC)c1
inactive: dose: 7.5 mg/kg/injection, schedule: Q01DX009 (ip), vehicle: saline with Tween-80 95 % of control | dose: 15.0 mg/kg/injection, schedule: Q01DX009 (ip), vehicle: saline with Tween-80 97 % of control | dose: 30.0 mg/kg/injection, schedule: Q01DX009 (ip), vehicle: saline with Tween-80 110 % of control

O=NN(C(=O)NC1CCC(O)CC1)C1CCC(O)CC1 (stereo not given)
inactive: dose: 25.0 mg/kg/injection, schedule: Q01DX001 (ip), vehicle: distilled water + Tween-80 102 % of control | dose: 50.0 mg/kg/injection, schedule: Q01DX001 (ip), vehicle: distilled water + Tween-80 99 % of control | dose: 100.0 mg/kg/injection, schedule: Q01DX001 (ip), vehicle: distilled water + Tween-80 106 % of control | dose: 200.0 mg/kg/injection, schedule: Q01DX001 (ip), vehicle: distilled water + Tween-80 101 % of control

CC(=O)c1ccccc1N=Nc1ccc(N(CCCl)CCCl)cc1C
inactive: [4] 98 % of control | [5] 104 % of control and 108 % of control | [6] 96 % of control | [7] 123 % of control

CC1CCCC(C)N1NC(=O)C(C)(C)C (stereo not given)
inactive: [13] 99 % of control | [14] 115 % of control | [15] 101 % of control

COC(=O)c1ccc(N=NN(C)CO)cc1
inactive: [8] 97 % of control | [9] 108 % of control | [10] 115 % of control

C[n+]1cccc2c1C(=O)C(=O)c1c-2ccc[n+]1C
inactive: dose: 100.0 mg/kg/injection, schedule: Q04DX002 (ip), vehicle: saline with Tween-80 120 % of control | dose: 200.0 mg/kg/injection, schedule: Q04DX002 (ip), vehicle: saline with Tween-80 105 % of control

CN(N=O)C(=O)N[C@@H](C=O)[C@@H](O)[C@H](O)[C@H](O)CO
inactive: dose: 31.25 mg/kg/injection, schedule: Q01DX001 (ip), vehicle: other 105 % of control and 106 % of control | dose: 62.5 mg/kg/injection, schedule: Q01DX001 (ip), vehicle: other 105 % of control and 109 % of control | dose: 80.0 mg/kg/injection, schedule: Q04DX003 (ip), vehicle: citric acid 110 % of control | dose: 80.0 mg/kg/injection, schedule: Q04DX003 (ip), vehicle: other 108 % of control | dose: 120.0 mg/kg/injection, schedule: Q04DX003 (ip), vehicle: other 107 % of control and 114 % of control | dose: 125.0 mg/kg/injection, schedule: Q01DX001 (ip), vehicle: other 111 % of control and 117 % of control | dose: 180.0 mg/kg/injection, schedule: Q04DX003 (ip), vehicle: citric acid 119 % of control | dose: 180.0 mg/kg/injection, schedule: Q04DX003 (ip), vehicle: other 118 % of control and 122 % of control | dose: 240.0 mg/kg/injection, schedule: Q04DX003 (ip), vehicle: other 112 % of control and 120 % of control | dose: 500.0 mg/kg/injection, schedule: Q01DX001 (ip), vehicle: other 90 % of control

CCOC(=O)/C(C#N)=C/Nc1ccc(Cl)nc1Cl
inactive: [8] 89 % of control | [9] 86 % of control
